Measured values from article PMC6964270, “Co-Prodrugs of 7-Ethyl-10-hydroxycamptothecin and Vorinostat with in Vitro Hydrolysis and Anticancer Effects” (ACS Omega, 2019).

system: A549 cell line; experiment: In vitro cytotoxicity, SRB assay, A549; type: cell-based; conditions: Homo sapiens, 72 h, three independent determinations, read-out: IC50 (mean ± SD) A549

In order of falling IC50:
1. CCc1c2c(nc3ccc(O)cc13)-c1cc3c(c(=O)n1C2)COC(=O)[C@@]3(CC)OC(=O)CCCCCNC(=O)ONC(=O)CCCCCCC(=O)Nc1ccccc1 [3d]  3100 ± 116 nM
2. CCc1c2c(nc3ccc(O)cc13)-c1cc3c(c(=O)n1C2)COC(=O)[C@@]3(CC)OC(=O)CCCNC(=O)ONC(=O)CCCCCCC(=O)Nc1ccccc1 [3c]  663 ± 24.3 nM
3. CCc1c2c(nc3ccc(O)cc13)-c1cc3c(c(=O)n1C2)COC(=O)[C@@]3(CC)OC(=O)CCNC(=O)ONC(=O)CCCCCCC(=O)Nc1ccccc1 [3b]  322 ± 32.5 nM
4. CCc1c2c(nc3ccc(O)cc13)-c1cc3c(c(=O)n1C2)COC(=O)[C@@]3(CC)OC(=O)CNC(=O)ONC(=O)CCCCCCC(=O)Nc1ccccc1 [3a]  87.3 ± 7.9 nM
5. CCc1c2c(nc3ccc(O)cc13)-c1cc3c(c(=O)n1C2)COC(=O)[C@]3(O)CC [SN38, 7-Ethyl-10-hydroxycamptothecin]  45.4 ± 4.7 nM

system: HCT116 cell line; experiment: In vitro cytotoxicity, SRB assay, HCT116; type: cell-based; conditions: Homo sapiens, HCT-116, 72 h, three independent determinations, read-out: IC50 (mean ± SD) HCT-116

In order of falling IC50:
1. CCc1c2c(nc3ccc(O)cc13)-c1cc3c(c(=O)n1C2)COC(=O)[C@@]3(CC)OC(=O)CCCCCNC(=O)ONC(=O)CCCCCCC(=O)Nc1ccccc1 [3d]  3010 ± 251 nM
2. CCc1c2c(nc3ccc(O)cc13)-c1cc3c(c(=O)n1C2)COC(=O)[C@@]3(CC)OC(=O)CCCNC(=O)ONC(=O)CCCCCCC(=O)Nc1ccccc1 [3c]  760 ± 30.9 nM
3. CCc1c2c(nc3ccc(O)cc13)-c1cc3c(c(=O)n1C2)COC(=O)[C@@]3(CC)OC(=O)CCNC(=O)ONC(=O)CCCCCCC(=O)Nc1ccccc1 [3b]  428 ± 20.5 nM
4. CCc1c2c(nc3ccc(O)cc13)-c1cc3c(c(=O)n1C2)COC(=O)[C@@]3(CC)OC(=O)CNC(=O)ONC(=O)CCCCCCC(=O)Nc1ccccc1 [3a]  113 ± 10.8 nM
5. CCc1c2c(nc3ccc(O)cc13)-c1cc3c(c(=O)n1C2)COC(=O)[C@]3(O)CC [SN38, 7-Ethyl-10-hydroxycamptothecin]  55.1 ± 10 nM

system: not listed separately; experiment: In vitro degradation and release of co-prodrugs in PBS pH 7.4 (HPLC); type: physicochemical; conditions: PBS buffer; pH 7.4 PBS, 37 °C; read-out: half-life (t1/2) of co-prodrug in PBS (converted)
Protocol: (§1) Chromatographic detection was carried out by using Agilent 1200 high-performance liquid chromatography (HPLC, Agilent, Palo Alto, CA) with a Diamonsil C18 (250 mm × 4.6 mm) column. The detection was conducted at 254 nm (UV detector) with the column temperature at room temperature. The sample volume for each injection was 50 μL. The gradient elution was applied with a mobile phase of acetonitrile (ACN) containing 0.1% formic acid and water containing 0.1% formic acid with a constant flow rate of 1 mL/min: 0–15 min (5% ACN to 95% ACN), 15–25 min (95% ACN). The external standard method was established by HPLC in order to determine the content of each compound.
SN38-SAHA co-prodrug solutions with a concentration of 100 μM/L were diluted to 0.05 μM/L with 10 mM PBS buffer (pH 7.4/6.0). After incubation at 37 °C for 0.5, 1, 2, 3, 4, 6, 12, 24, and 48 h, the areas of SN38-SAHA co-prodrugs and other species were detected by HPLC as well. Then each compound was calculated by the concentration–area standard curve, which was obtained by the external standard method.

`CCc1c2c(nc3ccc(O)cc13)-c1cc3c(c(=O)n1C2)COC(=O)[C@@]3(CC)OC(=O)CNC(=O)ONC(=O)CCCCCCC(=O)Nc1ccccc1` [3a] gave a half-life at 0.05 μM/L of 120 min.

same assay, conditions: pH 7.4 PBS, 37 °C, 24 h later

With `CCc1c2c(nc3ccc(O)cc13)-c1cc3c(c(=O)n1C2)COC(=O)[C@@]3(CC)OC(=O)CCCCCNC(=O)ONC(=O)CCCCCCC(=O)Nc1ccccc1` [3d] the “formation percentage of SN38” value was “almost have no SN38 generated”.
For `CCc1c2c(nc3ccc(O)cc13)-c1cc3c(c(=O)n1C2)COC(=O)[C@@]3(CC)OC(=O)CCCNC(=O)ONC(=O)CCCCCCC(=O)Nc1ccccc1` [3c], the “formation percentage of SN38” value was “almost have no SN38 generated”.

In order of falling “formation percentage of SN38” value:
1. CCc1c2c(nc3ccc(O)cc13)-c1cc3c(c(=O)n1C2)COC(=O)[C@@]3(CC)OC(=O)CNC(=O)ONC(=O)CCCCCCC(=O)Nc1ccccc1 [3a]  26.3%
2. CCc1c2c(nc3ccc(O)cc13)-c1cc3c(c(=O)n1C2)COC(=O)[C@@]3(CC)OC(=O)CCNC(=O)ONC(=O)CCCCCCC(=O)Nc1ccccc1 [3b]  3.4%

system: not listed separately; experiment: In vitro degradation and release of co-prodrugs in human plasma (HPLC); type: in vitro ADME; conditions: male, 37 °C, read-out: t1/2 of co-prodrug in plasma (converted)
Text: SAHA was synthesized before. SN-38 was purchased from Shanghai Puyi Chemical Co., Ltd. Di-tert-butyl dicarbonate ((Boc)2O), 4-dimethylaminopyridine (DMAP), 1,1′-carbonyl-diimidazole (CDI), and N,N′-diisopropylcarbodiimide (DIC) were all purchased from Energy Chemical Reagent Co. ( Shanghai, China). The different amino acids were purchased from Meryer Chemical Reagent Co. (Shanghai, China). CH2Cl2 was dried and redistilled before use. All chemical reagents used were of analytical-grade quality. Mouse plasma was taken from KM mouse (male, 6 weeks old). Human plasma was donated by an adult.
as §1
SN38-SAHA co-prodrug solutions with a concentration of 100 μM/L were diluted to 0.1 μM/L by plasma (human/mouse). After incubation at 37 °C for 0.5, 1, 2, 3, 4, and 6 h, 50 μL of reaction mixture was quenched with 50 μL of cold ACN and centrifuged at 30000 rpm × 5 min. The supernatant (50 μL) was detected by HPLC. Then each compound was calculated by the concentration–area standard curve, which was obtained by the external standard method.

In order of falling half-life at 0.1 μM/L:
1. CCc1c2c(nc3ccc(O)cc13)-c1cc3c(c(=O)n1C2)COC(=O)[C@@]3(CC)OC(=O)CCCCCNC(=O)ONC(=O)CCCCCCC(=O)Nc1ccccc1 [3d]  300 min
2. CCc1c2c(nc3ccc(O)cc13)-c1cc3c(c(=O)n1C2)COC(=O)[C@@]3(CC)OC(=O)CCCNC(=O)ONC(=O)CCCCCCC(=O)Nc1ccccc1 [3c]  300 min
3. CCc1c2c(nc3ccc(O)cc13)-c1cc3c(c(=O)n1C2)COC(=O)[C@@]3(CC)OC(=O)CCNC(=O)ONC(=O)CCCCCCC(=O)Nc1ccccc1 [3b]  180 min
4. CCc1c2c(nc3ccc(O)cc13)-c1cc3c(c(=O)n1C2)COC(=O)[C@@]3(CC)OC(=O)CNC(=O)ONC(=O)CCCCCCC(=O)Nc1ccccc1 [3a]  60 min
